Laboratory results as given in patent US10830770B2, “Cell death assay” (HQ MEDICAL (NETHERLANDS) B.V., priority 2012, dated 2020).

system: 4T1-luc2 mouse breast cancer cells; test: dry-ice dead-cells-assay (in vitro model of cryo-induced cell death); type: cell-based; settings: Trypan Blue 0.2% in culture medium, 15 min, FIG. 4A
Description: The dead cell targeting properties of seven HQ medical compounds (HQ1-7) were assessed in a newly developed in vitro assay of living and dead 4T1-luc2 mouse breast cancer cells. For this 4T1-luc2 cells were cultured to confluence in 12-well plates and a local area of cell death was induced by applying a bar of dry ice to the bottom of the culture well. Subsequently, the cells were incubated with the test compounds, washed and imaged with the Lycor Odyssey.
4T1-Luc cells were seeded onto individual wells from a 12-well cell culture plate and allowed to grow to confluence in RPMI media supplemented with 10% fetal bovine serum. 4T1-luc2 mouse breast cancer cells were used as the adherence of these cells to the bottom of the culture well remains strong after dry-ice treatment. To initiate cryo-induced cell death, media was discarded and dry-ice was applied to the bottom center of each individual well for 15 sec. Subsequently, fresh medium with different concentrations of the HQ medical compounds (HQ1-7) were added and cells were incubated at 37° C. for 15 min. After incubation, the media were discarded and the cells were washed twice with serum free medium and 0.5 ml fresh RPMI was added to each well. Cells were then visualized using a Licor Odyssey equipped with 700 and 800 nm diode laser. Luciferin ([…]) was also added to each well and fluorescence and bioluminescence images were acquired using an IVIS Spectrum (fluorescence: excitation filter: 710 nm, emission filter: 820 nm, exposure time: 90 s, bin: 8, f/stop: 2, field of view: 12.9 cm) (bioluminescence: open filter, exposure time: 30 s, bin: 8, f/stop: 1, field of view: 12.9 cm). Some culture wells were also stained for 15 min with Trypan Blue (0.2% in culture medium) to confirm cell death.
Confluent cultures of 4T1-luc2 breast cancer cells were treated for 15 sec with a focal application of dry-ice to the bottom center of a culture well and were used to examine the dead cell binding properties of the seven HQ medical NIRF compounds. First, however, in order to confirm the presence of a local area of dead cells, the dry-ice treated cultures were incubated with Trypan blue or were treated with luciferin and measured for bioluminescence.
HQ medical #1-7 were examined for their imaging potential of dead cells in the present dry-ice dead-cells-assay. The cells were incubated with the HQ medical compounds with concentrations ranging from 0.5 to 0.001 uM. HQ medical #4-7, all specifically bound to dead cells (FIGS. 5A and B). […] For HQ medical #6 and 7, a signal from the dead cell area could be detected at least 50-fold higher concentrations.

Row | Compound | uptake of Trypan Blue at site of focal dry-ice treatment compared to viable cells in the periphery
1 | Cc1cc(-c2ccc(/N=N/c3c(S(=O)(=O)O)cc4cc(S(=O)(=O)O)cc(N)c4c3O)c(C)c2)ccc1/N=N/c1c(S(=O)(=O)O)cc2cc(S(=O)(=O)O)cc(N)c2c1O [Trypan Blue] | increased uptake

same assay, conditions: dead vs living cells

Row | Compound | binding to dead cells
2 | CC[N+](CC)=c1ccc2c(/C=C/C=C/C=C3/N(CCCS(=O)(=O)[O-])c4ccc(S(=O)(=O)[O-])cc4C3(C)CCCC(=O)O)cc(C(C)(C)C)oc-2c1.[Na+] (stereo not drawn) [DY-731] | specific binding to dead cells
3 | CC1(C)C(/C=C/C2=C(Oc3ccc(S(=O)(=O)O)cc3)C(=C/C=C3/N(CCCCS(=O)(=O)O)c4ccc(S(=O)(=O)[O-])cc4C3(C)C)/CCC2)=[N+](CCCCCC(=O)O)c2ccc(S(=O)(=O)O)cc21 [CW 800] | specific binding to dead cells
4 | CCN1c2cc3c(cc2C(C)=CC1(C)C)C(=CC=CC1=[N+](CCCS(=O)(=O)[O-])c2ccc(S(=O)(=O)[O-])cc2C1(C)CCCC(=O)O)C=C(c1ccccc1)O3.[Na+] (stereo not drawn) [DY-676] | specific binding to dead cells
5 | CCN1/C(=C/C=C/C=C/C2=[N+](CCCCCC(=O)O)c3ccc(S(=O)(=O)O)cc3C2(C)C)C(C)(C)c2cc(S(=O)(=O)[O-])ccc21 [CY5] | specific binding to dead cells
6 | CC[N+](CC)=c1ccc2c(C(C)(C)C)cc(/C=C/C=C3/N(CCCS(=O)(=O)[O-])c4ccc(S(=O)(=O)[O-])cc4C3(C)CCCC(=O)O)oc-2c1.[Na+] (stereo not drawn) [DY-681] | specific binding to dead cells
7 | CY5.5 | specific binding to dead cells
8 | CCN1c2cc3c(cc2C(C)=CC1(C)C)/C(=C/C=C/C=C/C1=[N+](CCCS(=O)(=O)[O-])c2ccc(S(=O)(=O)[O-])cc2C1(C)CCCC(=O)O)C=C(c1ccccc1)O3.[Na+] (stereo not drawn) [DY-776] | specific binding to dead cells
9 | CC1(C)C(=CC=C2CCCC(C=CC3=[N+](CCC[N+](C)(C)C)c4ccc(S(=O)(=O)O)cc4C3(C)C)=C2Oc2ccc(CCC(=O)O)cc2)N(CCC[N+](C)(C)C)c2ccc(S(=O)(=O)O)cc21 [ZW800] | specific binding to dead cells
10 | CCN1C(=CC=CC=CC=CC2=[N+](CCCCCC(=O)O)c3ccc(S(=O)(=O)O)cc3C2(C)C)C(C)(C)c2cc(S(=O)(=O)[O-])ccc21 [CY7] | specific binding to dead cells
11 | CC1(C)C(/C=C/C=C/C=C/C=C2\N(CCCCS(=O)(=O)[O-])c3ccc4ccccc4c3C2(C)C)=[N+](CCCCS(=O)(=O)[O-])c2ccc3ccccc3c21.[Na+] [ICG] | specific binding to dead cells
12 | CCN1C(=CC=CC2=[N+](CCCCCC(=O)O)c3ccc(S(=O)(=O)O)cc3C2(C)C)C(C)(C)c2cc(S(=O)(=O)[O-])ccc21 [CY3] | specific binding to dead cells
